Test results taken from patent US20070086953A1, “Medicinal Aerosol Formulation Products With Improved Chemical Stability” (priority 2004, published 2007).

Experiments:
[1] = Stability study of TA 2005 HFA solution formulation in MDI cans, 40° C. and 75% relative humidity; assay type: physicochemical; conditions: three months, mean of two cans
Description: A formulation for delivering a nominal dose of 1 μg per actuation of TA 2005 was prepared with the composition as follows:
The formulation (120 actuations/canister, overage of 30 actuations) was filled in aluminium canisters having the internal surface coated with Teflon (two stage pressure filling) and fitted with a metering valve having a 63 μl metering chamber provided with a butyl rubber gasket as described in WO 03/078538 (Bespak) cited above. In particular, the gaskets were made of a bromobutyl rubber made of approximately 97% isobutylene and approximately 3% isoprene and having been polymerised by using an aluminium chloride catalyst and by treating the thus obtained isoprene-isobutylene rubber with bromine.
The same formulation was filled in the same kind of cans fitted with valves provided with EPDM rubber gaskets.
A stability study was carried out storing the formulation in upright and inverted cans at 40° C. and 75% relative humidity.
The stability test in Examples 1 and 2 was carried out both in upright and inverted cans. In inverted position, the formulation is in direct contact with the valve materials for all the duration of the test in order to detect possible chemical interactions with the valve materials that may negatively affect the stability of the active ingredient in the formulation. In upright cans the interactions between the valve materials and the formulation are very limited and so also the possible negative effects on the stability of the active ingredient in the formulation may be unnoticed.

[2] = 4 μg/63 μl, stored upright at 5° C., teflon-coated aluminium canisters, EPDM gaskets, after nine months; cited from earlier work

COc1ccc(C[C@@H](C)NC[C@H](O)c2ccc(O)c3[nH]c(=O)ccc23)cc1.Cl [TA 2005, 8-hydroxy-5-[(1R)-1-hydroxy-2-[[(1R)-2-(4-methoxyphenyl)-1-methylethyl]amino]ethyl]-2(1H)-quinolinone hydrochloride]
percent amount of TA 2005 ([1]; inverted cans, EPDM rubber gaskets): 77%
percent amount of TA 2005 ([1]; inverted cans, bromobutyl rubber gaskets): 97%
percent amount of TA 2005 ([1]; upright cans, EPDM rubber gaskets): 98%
percent amount of TA 2005 ([1]; upright cans, bromobutyl rubber gaskets): 98%
TA 2005 assay [2]: higher than 95%
